Assay results from patent US7476664B2, “Bis-2-difluoro-pyrrolo[2,1-C][1,4]benzodiazepine dimers” (priority 2007, dated 2009).

System: calf thymus (CT) DNA
Type: binding
Conditions: for ΔTm (° C.) after incubation at 37° C. for 0 h / ΔTm (° C.) after incubation at 37° C. for 18 h / ΔTm (° C.) after incubation at 37° C. for 36 h: [PBD]:[DNA] molar ratio 1:5, CT-DNA 100 μM, ligand 20 μM, 10 mM sodium phosphate + 1 mM EDTA, pH 7.00; for ΔTm (° C.) after incubation at 37° C. for 0 h: 0 h incubation at 37° C.; for ΔTm (° C.) after incubation at 37° C. for 18 h: 18 h incubation at 37° C.; for ΔTm (° C.) after incubation at 37° C. for 36 h: 36 h incubation at 37° C.
Description: The DNA binding affinity of the novel C2 di-fluoro PBD dimers (VIIa-c) was investigated by thermal denaturation studies using calf thymus (CT) DNA (Jones, G. B.; Davey, C. L.; Jenkins, T. C.; Kamal, A.; Kneale, G. G.; Neidle, S.; Webster, G. D.; Thurston, D. E. Anti-Cancer Drug Des. 1990, 5, 249. McConnaughie, A. W.; Jenkins, T. C. J. Med. Chem. 1995, 38, 3488). The studies for these compounds (VIIa-c) were carried out by DNA/ligand molar ratios of 5:1. The increase in the helix melting temperature. (ΔTm) for each compound was examined after 0, 18 and 36 h incubation at 37° C.

1,1′-{[(butane-1,4-diyl)]dioxy}bis[(11aS)-2,2-difluoro-7-methoxy-1,2,3,11a-tetrahydro-5H-pyrrolo[2,1-c][1,4]benzodiazepin-5-one [VIIb]
ΔTm (° C.) after incubation at 37° C. for 0 h: 4.2 °C | ΔTm (° C.) after incubation at 37° C. for 18 h: 23.4 °C | ΔTm (° C.) after incubation at 37° C. for 36 h: 24.7 °C

1,1′-{[(pentane-1,5-diyl)]dioxy}bis[(11aS)-2,2-difluoro-7-methoxy-1,2,3,11a-tetrahydro-5H-pyrrolo[2,1-c][1,4]benzodiazepin-5-one [VIIc]
ΔTm (° C.) after incubation at 37° C. for 0 h: 18.9 °C | ΔTm (° C.) after incubation at 37° C. for 18 h: 24.5 °C | ΔTm (° C.) after incubation at 37° C. for 36 h: 28.4 °C

COc1cc2c(cc1O)N=CC1CCCN1C2=O (stereo not shown) [DC-81, reference compound]
ΔTm (° C.) after incubation at 37° C. for 0 h: 0.3 °C | ΔTm (° C.) after incubation at 37° C. for 18 h: 0.7 °C | ΔTm (° C.) after incubation at 37° C. for 36 h: 0.7 °C | ΔTm (increase in the helix melting temperature) (under identical experimental conditions, DNA/ligand molar ratio 5:1, incubation time not stated): 0.7 °C

COc1ccc2c(c1)C(=O)N1CC(F)(F)C(OCCCOC3[C@@H]4C=Nc5ccc(OC)cc5C(=O)N4CC3(F)F)[C@@H]1C=N2 (stereo partly drawn) [VIIa, 1,1′-{[(propane-1,3-diyl)]dioxy}bis[(11aS)-2,2-difluoro-7-methoxy-1,2,3,11a-tetrahydro-5H-pyrrolo[2,1-c][1,4]benzodiazepin-5-one]]
ΔTm (° C.) after incubation at 37° C. for 0 h: 13.1 °C | ΔTm (° C.) after incubation at 37° C. for 18 h: 23.4 °C | ΔTm (° C.) after incubation at 37° C. for 36 h: 27.5 °C
